According to ChEMBL document CHEMBL4842345, “Design, synthesis and biological evaluation of tanshinone IIA-based analogues: Potent inhibitors of microtubule formation and angiogenesis” (Eur J Med Chem, 2021):

Columns and labels:
HepG2 = assay: Antiproliferative activity against human HepG2 cells assessed as reduction in cell viability measured after 72 hrs by MTT assay; format: functional, cell-based; details: HepG2, 72 h
HeLa = assay: Antiproliferative activity against human HeLa cells assessed as reduction in cell viability measured after 72 hrs by MTT assay; format: functional, cell-based
MGC-803 = assay: Antiproliferative activity against human MGC-803 cells assessed as reduction in cell viability measured after 72 hrs by MTT assay; format: functional, cell-based; details: MGC-803, 72 h
U-937 = assay: Antiproliferative activity against human U-937 cells assessed as reduction in cell viability measured after 72 hrs by MTT assay; format: functional, cell-based; details: U-937, 72 h
MCF7 = assay: Antiproliferative activity against human MCF7 cells assessed as reduction in cell viability measured after 72 hrs by MTT assay; format: functional, cell-based; details: MCF7, 72 h
A549 = assay: Antiproliferative activity against human A549 cells assessed as reduction in cell viability measured after 72 hrs by MTT assay; format: functional, cell-based; details: A549, 72 h
[1] = Metabolic stability in human liver microsomes assessed as degradation half life; format: ADME, Microsome; details: liver microsomes
[2] = Kinetic solubility of the compound at pH 2 by nephelometry; format: physicochemical; details: buffer, read-out: Kinetic_solubility
[3] = Intrinsic clearance in human liver microsome; format: ADME, microsomes; details: liver microsomes, read-out: CLH
[4] = Kinetic solubility of the compound at pH 6.5 by nephelometry; format: physicochemical; details: buffer, read-out: Kinetic_solubility

SMILES	IC50 (HepG2)	IC50 (HeLa)	IC50 (MGC-803)	IC50 (U-937)	IC50 (MCF7)	IC50 (A549)	half-life [1]	solubility kinetic [2]	microsomal CLint [3]	solubility kinetic [4]
COc1ccc2c(c1)C(=O)C(=O)c1c(C)coc1-2	> 5000 nM	2820 nM	3950 nM	3670 nM	> 5000 nM	940 nM				
Cc1coc2c1C(=O)C(=O)c1cc(O)ccc1-2	> 5000 nM	> 5000 nM	> 5000 nM	> 5000 nM	> 5000 nM	> 5000 nM				
COc1ccc2c(c1)C(=O)C(=O)c1cc(C)oc1-2	3480 nM	1380 nM	> 5000 nM	3400 nM	> 5000 nM	750 nM				
Cc1coc2c1C(=O)C(=O)c1cccc(O)c1-2	> 5000 nM	> 5000 nM	> 5000 nM	> 5000 nM	> 5000 nM	> 5000 nM				
COc1cccc2c1-c1occ(C)c1C(=O)C2=O	3780 nM	2330 nM	3910 nM	> 5000 nM	> 5000 nM	430 nM				
COc1cccc2c1-c1oc(C)cc1C(=O)C2=O	4750 nM	2100 nM	> 5000 nM	3260 nM	> 5000 nM	2740 nM				
Cc1cc2c(o1)-c1c(O)cccc1C(=O)C2=O	> 5000 nM	> 5000 nM	> 5000 nM	> 5000 nM	> 5000 nM	> 5000 nM				
Cc1cc2c(o1)-c1ccc(O)cc1C(=O)C2=O	4010 nM	2280 nM	2920 nM	3540 nM	> 5000 nM	1780 nM				
Cc1coc2c1C(=O)C(=O)c1c-2ccc2c1CCCC2(C)C [TANSHINONE IIA]	4910 nM	3470 nM	> 5000 nM	> 5000 nM	> 5000 nM	2200 nM	10 min	< 5 µg/mL	45 µL/min/mg	< 5 µg/mL

These reach a lower IC50 (HepG2). Values come first.

IC50 (HepG2)	IC50 (HeLa)	IC50 (MGC-803)	IC50 (U-937)	IC50 (MCF7)	IC50 (A549)	half-life [1]	solubility kinetic [2]	microsomal CLint [3]	solubility kinetic [4]	SMILES
3270 nM	4220 nM	> 5000 nM	2200 nM	3570 nM	1500 nM					Cc1coc2c1C(=O)C(=O)c1cc(C(C)C)ccc1-2
2770 nM	1510 nM	3540 nM	1580 nM	1290 nM	2990 nM					Cc1cc2c(o1)-c1ccccc1C(=O)C2=O
2410 nM	2160 nM	1970 nM	1660 nM	2420 nM	2510 nM					Cc1cc2c(o1)-c1ccc(C(C)C)cc1C(=O)C2=O
2060 nM	950 nM	1920 nM	1190 nM	1580 nM	850 nM					Cc1coc2c1C(=O)C(=O)c1ccccc1-2
1290 nM	1550 nM	2280 nM	2530 nM	4450 nM	1780 nM					Cc1coc2c1C(=O)C(=O)c1cc(Cl)ccc1-2
1220 nM	1170 nM	2800 nM	2690 nM	> 5000 nM	200 nM					Cc1cc2c(o1)-c1ccc3c(c1C(=O)C2=O)CCCC3(C)C
